From US12594228B2, “Composition for hair protection or hair strengthening” (AMOREPACIFIC CORPORATION, priority 2024, dated 2026)

How the values were obtained:
[1] = Penetration and binding in hair by confocal microscopy; conditions: fluorescent substance applied to hair, FIG. 6, FIG. 7
Description: A green fluorescent substance (FITC; Fluorescein isothiocyanate) was conjugated to palmitoyl-CWK, a tripeptide (i.e., palmitoyl tripeptide) covalently bound to palmitic acid at the N-terminus (fluorescent labeling) and applied to hair. After that, the change in hair structure that affects the increase in hair tensile strength was confirmed by comparing the colored areas using a confocal microscopy.
Meanwhile, for comparison of hair penetration routes, the water-soluble fluorescent substance 5-(4-Dimethylaminobenzylidene) rhodanine was applied to the hair, and the colored area (indicated in gray in FIG. 7) was confirmed using a confocal microscope.

[2] = Tensile strength of bleached hair tresses treated with test substance (MTT175); design: species or system human; conditions: test substance 0.01 wt % in purified water and ethanol (80 wt %), about 30 minutes; FIG. 4, FIG. 5
Procedure: The compositions in Table 2 above were applied to human hair to compare tensile strength.
(§1) Specifically, bleached hair tresses (1 g, manufactured by Beaulax) were prepared. The hair tresses were washed using a basic shampoo without conditioning function, rinsed for 1 minute, and dried for 2 minutes. The dried hair tresses (1 g) were immersed in 100 g of a solution in which the test substance (the mixture of Example 1 or the mixture of Comparative Example 1 in Table 2 above) was dissolved at 0.1 wt % (wherein the solution is a solution in which the test substance (0.1 wt %) is dissolved in purified water (remaining amount) for about 30 minutes. The immersed hair tresses were rinsed in running water for 1 minute and then naturally dried for more than 12 hours. Thirty hair strands were randomly selected from each hair tresses treated with the test substance. Thirty hair strands were randomly selected from the control hair tresses that were not treated with the test substance. The tensile strength of each selected hair was measured using an MTT175 (manufactured by DiaStron) device.
The tensile strength was compared by applying the test substance (the above 5 types of tripeptides) to the hair using the same method as in ‘Experimental Example 2. (1) Measurement of tensile strength’.
as §1, with “(synthesized tripeptide)” for “(the mixture of Example 1 or the mixture of Comparative Example 1 in Table 2 above)”, “0.01” for “0.1”, “(0.01” for “(0.1”, “(residue) and ethanol (80 wt %))” for “(remaining amount)”
Specifically, the tripeptide was synthesized using the same method as the peptide synthesis method of ‘Experimental Example 3’ above, but palmitic acid was added to the N-terminus of the peptide (reagents: HBTU (Hexafluorophosphate Benzotriazole), NMM (N-Methylmorpholine), DMF (Dimethylformamide), 1 hour at room temperature, concentration 0.3 M), and a tripeptide with palmitic acid covalently bonded to the N-terminus (i.e., palmitoyl tripeptide) was synthesized. After that, the test substance (tripeptide with palmitic acid covalently bonded to the N-terminus) was applied to the hair and the tensile strength was compared using the same method as in ‘Experimental Example 3. (1) Measurement of tensile strength’.

hair structural proteins = assay: Denaturation enthalpy of hair structural proteins by DSC; conditions: bleached hair, test substance 0.01 wt % in purified water and ethanol (80 wt %), 30 minutes; FIG. 3
Procedure: The denaturation enthalpy of hair structural proteins was compared according to whether or not the test substance was treated using a DSC (Differential Scanning calorimetry) analyzer. DSC is used as an analysis method to confirm the stability of hair structural proteins. Damage to the hair reduces the stability of hair structural proteins and decreases the enthalpy of denaturation. Specifically, bleached hair tresses (1 g. manufactured by Beaulax) were prepared. The hair tresses were washed using a basic shampoo without a conditioning function, rinsed for 1 minute, and dried for 2 minutes. The dried hair tresses (1 g) were immersed in 100 g of a solution in which the test substance (mixture of Example 1 in Table 2 above) was dissolved at 0.01 wt % (at this time, the solution is a solution in which the mixture of Example 1 (0.01 wt %) is dissolved in purified water (residue) and ethanol (80 wt %)) for 30 minutes. The immersed hair tresses were rinsed in running water for 1 minute and then naturally dried for more than 12 hours. Each treated hair tress was cut into 1 mm lengths, placed in an aluminum high-pressure capsule with 3-5 mg of the cut hair tress and 6-15 mg of distilled water, and combined. […] The denaturation enthalpies of the prepared DSC samples were measured using a DSC (Discovery DSC 250, TA Instruments) device (50-190 degrees, 10 degrees/min).
The denaturation enthalpy was measured by the same method as in ‘Experimental Example 2. (2) Measurement of denaturation enthalpy’, but the denaturation enthalpy was compared by applying applied CWK tripeptide as a test substance to hair.
The denaturation enthalpy was measured by the same method as in ‘Experimental Example 2. (2) Measurement of denaturation enthalpy’, but the denaturation enthalpy was compared by applying a tripeptide with palmitic acid covalently bonded to the N-terminus (i.e. palmitoyl tripeptide) to hair as the test substance.

[3] = Elasticity (horizontal resistance) of heat-treated hair simulating eyebrows; design: species or system human; conditions: hair heat-treated at 160° C. 20 times, then 0.01 wt % test substance in purified water, about 30 minutes; FIG. 11
Procedure: (§2) Specifically, since it is difficult to obtain eyebrows to be used for evaluation directly from a living body, human hair corresponding to the thickness of eyebrows was selected through Fibra.one (manufactured by DiaStron). The length was prepared to a level that can be applied to a machine measuring tensile strength. Heat-treated hair was prepared by applying pressure by hand at 160° C. 20 times with a hair straightener to the prepared human hair tresses. Hair that had not been heat-treated was prepared as a control group (untreated hair in FIGS. 9 and 11). In Experimental Example 6, the untreated hair was not treated with the test substance.
(§3) After that, the heat-treated hair tresses were treated with the test substance, KCV (KCV-treated hair in FIGS. 9 and 11). Specifically, the prepared tresses (1 g, manufactured by Beaulax) were washed using a basic cleanser without conditioning function, rinsed for 1 minute, and dried for 2 minutes. […]
The elasticity of KCV-treated hair, heat-damaged hair, and untreated hair was compared. Elasticity was defined as the horizontal resistance of hair, and elasticity was measured through each step of [Method for Measuring Hair Elasticity] below (see FIG. 10). […]

[4] = Tensile strength of heat-treated hair simulating eyebrows (Fibra.one); design: species or system human; conditions: hair heat-treated at 160° C. 20 times, then 0.01 wt % test substance in purified water, about 30 minutes; FIG. 9
Procedure: as §2, §3
Specifically, 30 hair strands were randomly selected from each tress (KCV-treated hair) treated with the test substance. […] The tensile strength of each selected hair was measured using a Fibra.one (manufactured by DiaStron).

Compound | tensile strength of hair compared to control bleached hair tresses [2] | denaturation enthalpy of hair structural protein compared to control hair (hair structural proteins) | other results
CN(C)c1ccc(C=C2SC(=S)NC2=O)cc1 [5-(4-Dimethylaminobenzylidene) rhodanine] | – | – | penetration and binding in hair (colored areas) [1]: barely remained in the cuticle layer on the hair surface and did not fill the lost area of CMC inside the hair
CKF | significantly increased | – | –
CWK | significantly increased | significantly increased | –
KCL | significantly increased | – | –
KCV | significantly increased | – | elasticity compared to heat-damaged hair tresses [3]: significantly increased; tensile strength (break load) per area compared to heat-damaged hair tresses [4]: significantly increased
PCP [reference compound] | not significant | – | –
palmitoyl-CKF [pal-CKF] | significantly increased | significantly increased | –
palmitoyl-CWK [pal-CWK] | significantly increased | significantly increased | –
palmitoyl-KCV [pal-KCV] | significantly increased | significantly increased | –
